Read-outs that look alike come from different tables or passages of the source.

This note sets out measurements from patent US20260364080A1, “PYRAZOLO-PYRIMIDINONE COMPOUNDS FOR USE IN METHODS OF INHIBITING WEE1 A KINASE” (Acrivon Therapeutics, Inc., priority 2023, published 2026).

For assay [1], the target named is T1, recombinant human Wee1A kinase (Homo sapiens, UniProt P30291).
T1 construct: full length Wee1 kinase was expressed by baculovirus in insect cells; purchased Invitrogen PV3817; host or cells: insect cells (baculovirus)
T1 sequence (P30291 whole entry): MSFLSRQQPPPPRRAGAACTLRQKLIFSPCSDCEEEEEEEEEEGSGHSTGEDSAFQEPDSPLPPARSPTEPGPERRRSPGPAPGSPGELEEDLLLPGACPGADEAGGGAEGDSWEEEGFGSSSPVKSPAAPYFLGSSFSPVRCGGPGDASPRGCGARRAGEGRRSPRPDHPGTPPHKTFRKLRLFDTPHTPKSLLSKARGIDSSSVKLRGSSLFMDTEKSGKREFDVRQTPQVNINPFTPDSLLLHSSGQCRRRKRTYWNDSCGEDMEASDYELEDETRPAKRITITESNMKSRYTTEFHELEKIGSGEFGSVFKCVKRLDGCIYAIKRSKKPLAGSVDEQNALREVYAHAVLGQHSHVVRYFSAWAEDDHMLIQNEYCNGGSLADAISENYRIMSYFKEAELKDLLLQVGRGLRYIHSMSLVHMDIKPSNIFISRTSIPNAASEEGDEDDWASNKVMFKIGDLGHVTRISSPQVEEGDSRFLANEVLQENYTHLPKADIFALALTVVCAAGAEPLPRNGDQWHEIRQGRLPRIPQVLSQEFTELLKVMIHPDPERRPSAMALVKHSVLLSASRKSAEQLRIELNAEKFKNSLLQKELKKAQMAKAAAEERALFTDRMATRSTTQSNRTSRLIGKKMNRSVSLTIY
As to the kind of experiment: Wee1A kinase binding assay (LanthaScreen Eu time-resolved FRET). In outline: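 Full-length, baculovirus-expressed GST-tagged Wee1A (5 nM) was mixed with 2 nM Eu-anti-GST antibody, 30 nM kinase tracer 178 and compound (1% DMSO). Buffer was 50 mM HEPES pH 7.5, 10 mM MgCl2, 1 mM EGTA, 0.01% Brij-35, incubated 60 min at room temperature. TR-FRET 665/615 nm emission ratios from duplicates were curve-fitted.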

Assay [2] has as its target T2, Myt1 kinase (recombinant PMYT-1) (Homo sapiens, UniProt Q99640).
T2 construct: full length PMYT-1 was expressed by baculovirus in insect cells; purchased Invitrogen A30984; host or cells: insect cells (baculovirus)
T2 sequence (Q99640 1-499): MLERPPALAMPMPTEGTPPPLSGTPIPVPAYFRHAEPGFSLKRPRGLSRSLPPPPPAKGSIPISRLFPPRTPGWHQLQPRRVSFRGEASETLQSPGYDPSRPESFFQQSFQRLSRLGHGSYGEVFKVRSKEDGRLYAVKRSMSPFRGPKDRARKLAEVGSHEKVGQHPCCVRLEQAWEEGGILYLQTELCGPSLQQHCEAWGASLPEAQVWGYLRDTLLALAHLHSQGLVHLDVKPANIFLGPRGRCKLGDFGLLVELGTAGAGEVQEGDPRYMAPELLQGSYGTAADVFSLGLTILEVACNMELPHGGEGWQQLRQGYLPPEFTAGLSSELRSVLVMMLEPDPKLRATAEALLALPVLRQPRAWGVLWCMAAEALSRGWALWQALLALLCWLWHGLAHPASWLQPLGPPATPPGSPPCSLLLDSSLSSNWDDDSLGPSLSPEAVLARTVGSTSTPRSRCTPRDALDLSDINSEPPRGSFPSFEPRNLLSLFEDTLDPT
In words: Myt1 kinase binding assay (LanthaScreen Eu Kinase Binding Assay). In outline:
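The binding affinity of compounds for Myt1 kinase was measured with a LanthaScreen Europium (Eu) Kinase Binding Assay, a time-resolved FRET format in which test compounds compete against a labeled kinase tracer, and the results were expressed as IC50 values describing compound binding to Myt1.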

Assay [3] addresses T3, Wee1A kinase (CDK1 Tyr15 phosphorylation in ACHN renal cell carcinoma cells) (Homo sapiens, UniProt P30291).
T3 construct: pCDK1 Tyr15 immunofluorescence read-out
In words: High-content imaging of pCdk1 Y15, Wee1A kinase target engagement in ACHN cells. The format is cell-based. In a few lines: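 ACHN cells exposed to compound for 4 h over 7–5,000 nM or 0.3–200 nM, then fixed and immunostained for pCDK1 Y15 with DAPI nuclear counterstain. The percentage of pCdk1 Y15 nucleus-positive cells relative to DMSO control was imaged per well; EC50 from dose-response curves.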

Setting [4] is: 30 nM tracer 178, 5 nM Wee1A kinase, 2 nM Eu-labeled antibody, 60 minutes at room temperature, read-out: Wee1A kinase Binding IC50.
The mark [5] stands for this setting: 3 nM tracer 178, 2.5 nM PMYT-1, 1 nM Eu-labeled antibody, read-out: Myt1 kinase Binding IC50.
Setting [6] is: 4 h treatment, nuclear positivity for pCdk1 Y15 vs DMSO control, read-out: CDK1 Tyr15 Phosphorylation EC50.
The mark [7] stands for this setting: Myt1 kinase Binding IC50, 3 nM tracer 178, 2.5 nM PMYT-1, 1 nM Eu-labeled antibody.
Setting [8] is: read-out: CDK1 Tyr15 Phosphorylation EC50, 4 h treatment, nuclear positivity for pCdk1 Y15 vs DMSO control.

T3 sequence (P30291 whole entry): as the sequence (P30291 whole entry) above

With `C=CCn1c(=O)c2cnc(Nc3ccc(Cl)cc3)nc2n1-c1cccc(O[C@H]2CCN(C)C2)n1` [Compound 148, 1-{6-[(S)-1-methyl-3-pyrrolidinyloxy]-2-pyridyl}-2-allyl-6-(p-chlorophenylamino)-1,2-dihydro-3H-1,2,5,7-tetraazainden-3-one], the IC50 in assay [1] (setting [4]) is under 10 nM; in assay [2] (setting [5]), 20 to 100 nM. The EC50 in assay [3] (setting [6]) fell in the range of 100 to 500 nM.

Take `C=CCn1c(=O)c2cnc(Nc3ccc(Cl)cc3)nc2n1-c1cccc(N(CCC)C2CCN(C)CC2)n1` [Compound 149, 6-[(4-chlorophenyl)amino]-1-{6-[(1-methylpiperidin-4-yl)(propyl)amino]pyridin-2-yl}-2-(prop-2-en-1-yl)-1H,2H,3H-pyrazolo[3,4-d]pyrimidin-3-one]: the IC50 in assay [1] is under 10 nM; in assay [2] (setting [7]), over 500 nM. In assay [3] (setting [8]), the concentration giving a half-maximal response (EC50) was in the range of 500 to 1000 nM.

On to `CN1CCC(Oc2cccc(-n3c4nc(Nc5ccc(Cl)cc5)ncc4c(=O)n3C)n2)CC1` [Compound 150, 6-(p-chlorophenylamino)-2-methyl-1-[6-(1-methyl-4-piperidyloxy)-2-pyridyl]-1,2-dihydro-3H-1,2,5,7-tetraazainden-3-one], for which the IC50 in assay [1] (setting [4]) was under 10 nM; in assay [2] (setting [5]), 20 to 100 nM. For the same compound, in assay [3] (setting [6]), the EC50 lay in the range of 100 to 500 nM.

Turning to `C=CCn1c(=O)c2cnc(Nc3ccc(Cl)c(Cl)c3)nc2n1-c1cccc(NC2CCN(C)CC2)n1` [Compound 151, 2-allyl-6-(3,4-dichlorophenylamino)-1-[6-(1-methyl-4-piperidylamino)-2-pyridyl]-1,2-dihydro-3H-1,2,5,7-tetraazainden-3-one], the 50% inhibitory concentration (IC50) was under 10 nM in assay [1] (setting [4]) and 100 to 500 nM in assay [2] (setting [5]). Also, in assay [3] (setting [6]), the EC50 is 100 to 500 nM.

For `Cc1cc(Nc2ncc3c(=O)n(C)n(-c4cccc(OC5CCN(C)CC5)n4)c3n2)ccc1F` [Compound 152, 6-(4-fluoro-3-toluidino)-2-methyl-1-[6-(1-methyl-4-piperidyloxy)-2-pyridyl]-1,2-dihydro-3H-1,2,5,7-tetraazainden-3-one], the IC50 in assay [1] (setting [4]) was under 10 nM; in assay [2] (setting [5]) it was 20 to 100 nM. In addition, in assay [3] (setting [6]), the 50% effective concentration (EC50) lay in the range of 100 to 500 nM.

With `Cn1c(=O)c2cnc(Nc3ccc(Cl)cc3)nc2n1-c1cccc(OC2CCNCC2)n1` [Compound 153, 6-(p-chlorophenylamino)-2-methyl-1-[6-(4-piperidyloxy)-2-pyridyl]-1,2-dihydro-3H-1,2,5,7-tetraazainden-3-one], the half-inhibitory concentration (IC50) in assay [1] (setting [4]) is under 10 nM; in assay [2] (setting [5]), 20 to 100 nM. Moreover, the EC50 in assay [3] (setting [6]) lay within 500 to 1000 nM.

For `Cc1cc(Nc2ncc3c(=O)n(C)n(-c4cccc(OC5CCNCC5)n4)c3n2)ccc1F` [Compound 154, 6-(4-fluoro-3-toluidino)-2-methyl-1-[6-(4-piperidyloxy)-2-pyridyl]-1,2-dihydro-3H-1,2,5,7-tetraazainden-3-one], the IC50 in assay [1] (setting [4]) is under 10 nM; in assay [2] (setting [5]), 100 to 500 nM. In addition, in assay [3] (setting [6]), the EC50 fell in the range of 100 to 500 nM.

On to `C=CCn1c(=O)c2cnc(Nc3cc(C)cc(OC(F)(F)F)c3)nc2n1-c1cccc(NC2CCNCC2)n1` [Compound 155, 6-{[3-methyl-5-(trifluoromethoxy)phenyl]amino}-1-{6-[(piperidin-4-yl)amino]pyridin-2-yl}-2-(prop-2-en-1-yl)-1H,2H,3H-pyrazolo[3,4-d]pyrimidin-3-one], for which the IC50 in assay [1] (setting [4]) was under 10 nM; in assay [2] (setting [5]), 100 to 500 nM. For the same compound, the EC50 in assay [3] (setting [6]) fell in the range of 500 to 1000 nM.

As to `C=CCn1c(=O)c2cnc(Nc3ccc(Cl)cc3)nc2n1-c1cccc(N(C)C2CCNCC2)n1` [Compound 156, 6-[(4-chlorophenyl)amino]-1-{6-[methyl(piperidin-4-yl)amino]pyridin-2-yl}-2-(prop-2-en-1-yl)-1H,2H,3H-pyrazolo[3,4-d]pyrimidin-3-one], the figures for the half-inhibitory concentration (IC50) in assay [1] and in assay [2] (setting [7]) were under 10 nM and 100 to 500 nM, respectively. For the same compound, the EC50 in assay [3] (setting [8]) was 500 to 1000 nM.
